Values quoted from earlier work as cited in patent US6710051B1, “Screening method” (Klaus Trier APS, priority 1997, dated 2004).
Like-named read-outs stand apart in the source and are kept apart here.

Biological target: T1, skeletal RyR (Oryctolagus cuniculus, UniProt P11716)
T1 construct: Structure-activity Relationship of Xanthines and Skeletal Muscle Ryanodine Receptor/Ca^2+ Release Channel; from tissue; host or cells: Skeletal muscle
Settings: cited from earlier work; for Bound [3H]ryanodine % of control / Bound [3H]ryanodine pmol/mg protein / Bound [3H]ryanodine, % of control, +1 mmol/l AMPPCP / Bound [3H]ryanodine, % of control, +3 mmol/l AMP: xanthine […]; for Bound [3H]ryanodine % of control / Bound [3H]ryanodine pmol/mg protein: 1 mmol/l AMPPCP; for Bound [3H]ryanodine pmol/mg protein: means±SD of 3-4 experiments; for effect on the [3H] ryanodine binding compared to the control xanthine: Table 3

[1] = control 1,3-dimethylxanthine = 100
[2] = control 3,7-dimethylxanthine = 100

T1 sequence (P11716 whole entry): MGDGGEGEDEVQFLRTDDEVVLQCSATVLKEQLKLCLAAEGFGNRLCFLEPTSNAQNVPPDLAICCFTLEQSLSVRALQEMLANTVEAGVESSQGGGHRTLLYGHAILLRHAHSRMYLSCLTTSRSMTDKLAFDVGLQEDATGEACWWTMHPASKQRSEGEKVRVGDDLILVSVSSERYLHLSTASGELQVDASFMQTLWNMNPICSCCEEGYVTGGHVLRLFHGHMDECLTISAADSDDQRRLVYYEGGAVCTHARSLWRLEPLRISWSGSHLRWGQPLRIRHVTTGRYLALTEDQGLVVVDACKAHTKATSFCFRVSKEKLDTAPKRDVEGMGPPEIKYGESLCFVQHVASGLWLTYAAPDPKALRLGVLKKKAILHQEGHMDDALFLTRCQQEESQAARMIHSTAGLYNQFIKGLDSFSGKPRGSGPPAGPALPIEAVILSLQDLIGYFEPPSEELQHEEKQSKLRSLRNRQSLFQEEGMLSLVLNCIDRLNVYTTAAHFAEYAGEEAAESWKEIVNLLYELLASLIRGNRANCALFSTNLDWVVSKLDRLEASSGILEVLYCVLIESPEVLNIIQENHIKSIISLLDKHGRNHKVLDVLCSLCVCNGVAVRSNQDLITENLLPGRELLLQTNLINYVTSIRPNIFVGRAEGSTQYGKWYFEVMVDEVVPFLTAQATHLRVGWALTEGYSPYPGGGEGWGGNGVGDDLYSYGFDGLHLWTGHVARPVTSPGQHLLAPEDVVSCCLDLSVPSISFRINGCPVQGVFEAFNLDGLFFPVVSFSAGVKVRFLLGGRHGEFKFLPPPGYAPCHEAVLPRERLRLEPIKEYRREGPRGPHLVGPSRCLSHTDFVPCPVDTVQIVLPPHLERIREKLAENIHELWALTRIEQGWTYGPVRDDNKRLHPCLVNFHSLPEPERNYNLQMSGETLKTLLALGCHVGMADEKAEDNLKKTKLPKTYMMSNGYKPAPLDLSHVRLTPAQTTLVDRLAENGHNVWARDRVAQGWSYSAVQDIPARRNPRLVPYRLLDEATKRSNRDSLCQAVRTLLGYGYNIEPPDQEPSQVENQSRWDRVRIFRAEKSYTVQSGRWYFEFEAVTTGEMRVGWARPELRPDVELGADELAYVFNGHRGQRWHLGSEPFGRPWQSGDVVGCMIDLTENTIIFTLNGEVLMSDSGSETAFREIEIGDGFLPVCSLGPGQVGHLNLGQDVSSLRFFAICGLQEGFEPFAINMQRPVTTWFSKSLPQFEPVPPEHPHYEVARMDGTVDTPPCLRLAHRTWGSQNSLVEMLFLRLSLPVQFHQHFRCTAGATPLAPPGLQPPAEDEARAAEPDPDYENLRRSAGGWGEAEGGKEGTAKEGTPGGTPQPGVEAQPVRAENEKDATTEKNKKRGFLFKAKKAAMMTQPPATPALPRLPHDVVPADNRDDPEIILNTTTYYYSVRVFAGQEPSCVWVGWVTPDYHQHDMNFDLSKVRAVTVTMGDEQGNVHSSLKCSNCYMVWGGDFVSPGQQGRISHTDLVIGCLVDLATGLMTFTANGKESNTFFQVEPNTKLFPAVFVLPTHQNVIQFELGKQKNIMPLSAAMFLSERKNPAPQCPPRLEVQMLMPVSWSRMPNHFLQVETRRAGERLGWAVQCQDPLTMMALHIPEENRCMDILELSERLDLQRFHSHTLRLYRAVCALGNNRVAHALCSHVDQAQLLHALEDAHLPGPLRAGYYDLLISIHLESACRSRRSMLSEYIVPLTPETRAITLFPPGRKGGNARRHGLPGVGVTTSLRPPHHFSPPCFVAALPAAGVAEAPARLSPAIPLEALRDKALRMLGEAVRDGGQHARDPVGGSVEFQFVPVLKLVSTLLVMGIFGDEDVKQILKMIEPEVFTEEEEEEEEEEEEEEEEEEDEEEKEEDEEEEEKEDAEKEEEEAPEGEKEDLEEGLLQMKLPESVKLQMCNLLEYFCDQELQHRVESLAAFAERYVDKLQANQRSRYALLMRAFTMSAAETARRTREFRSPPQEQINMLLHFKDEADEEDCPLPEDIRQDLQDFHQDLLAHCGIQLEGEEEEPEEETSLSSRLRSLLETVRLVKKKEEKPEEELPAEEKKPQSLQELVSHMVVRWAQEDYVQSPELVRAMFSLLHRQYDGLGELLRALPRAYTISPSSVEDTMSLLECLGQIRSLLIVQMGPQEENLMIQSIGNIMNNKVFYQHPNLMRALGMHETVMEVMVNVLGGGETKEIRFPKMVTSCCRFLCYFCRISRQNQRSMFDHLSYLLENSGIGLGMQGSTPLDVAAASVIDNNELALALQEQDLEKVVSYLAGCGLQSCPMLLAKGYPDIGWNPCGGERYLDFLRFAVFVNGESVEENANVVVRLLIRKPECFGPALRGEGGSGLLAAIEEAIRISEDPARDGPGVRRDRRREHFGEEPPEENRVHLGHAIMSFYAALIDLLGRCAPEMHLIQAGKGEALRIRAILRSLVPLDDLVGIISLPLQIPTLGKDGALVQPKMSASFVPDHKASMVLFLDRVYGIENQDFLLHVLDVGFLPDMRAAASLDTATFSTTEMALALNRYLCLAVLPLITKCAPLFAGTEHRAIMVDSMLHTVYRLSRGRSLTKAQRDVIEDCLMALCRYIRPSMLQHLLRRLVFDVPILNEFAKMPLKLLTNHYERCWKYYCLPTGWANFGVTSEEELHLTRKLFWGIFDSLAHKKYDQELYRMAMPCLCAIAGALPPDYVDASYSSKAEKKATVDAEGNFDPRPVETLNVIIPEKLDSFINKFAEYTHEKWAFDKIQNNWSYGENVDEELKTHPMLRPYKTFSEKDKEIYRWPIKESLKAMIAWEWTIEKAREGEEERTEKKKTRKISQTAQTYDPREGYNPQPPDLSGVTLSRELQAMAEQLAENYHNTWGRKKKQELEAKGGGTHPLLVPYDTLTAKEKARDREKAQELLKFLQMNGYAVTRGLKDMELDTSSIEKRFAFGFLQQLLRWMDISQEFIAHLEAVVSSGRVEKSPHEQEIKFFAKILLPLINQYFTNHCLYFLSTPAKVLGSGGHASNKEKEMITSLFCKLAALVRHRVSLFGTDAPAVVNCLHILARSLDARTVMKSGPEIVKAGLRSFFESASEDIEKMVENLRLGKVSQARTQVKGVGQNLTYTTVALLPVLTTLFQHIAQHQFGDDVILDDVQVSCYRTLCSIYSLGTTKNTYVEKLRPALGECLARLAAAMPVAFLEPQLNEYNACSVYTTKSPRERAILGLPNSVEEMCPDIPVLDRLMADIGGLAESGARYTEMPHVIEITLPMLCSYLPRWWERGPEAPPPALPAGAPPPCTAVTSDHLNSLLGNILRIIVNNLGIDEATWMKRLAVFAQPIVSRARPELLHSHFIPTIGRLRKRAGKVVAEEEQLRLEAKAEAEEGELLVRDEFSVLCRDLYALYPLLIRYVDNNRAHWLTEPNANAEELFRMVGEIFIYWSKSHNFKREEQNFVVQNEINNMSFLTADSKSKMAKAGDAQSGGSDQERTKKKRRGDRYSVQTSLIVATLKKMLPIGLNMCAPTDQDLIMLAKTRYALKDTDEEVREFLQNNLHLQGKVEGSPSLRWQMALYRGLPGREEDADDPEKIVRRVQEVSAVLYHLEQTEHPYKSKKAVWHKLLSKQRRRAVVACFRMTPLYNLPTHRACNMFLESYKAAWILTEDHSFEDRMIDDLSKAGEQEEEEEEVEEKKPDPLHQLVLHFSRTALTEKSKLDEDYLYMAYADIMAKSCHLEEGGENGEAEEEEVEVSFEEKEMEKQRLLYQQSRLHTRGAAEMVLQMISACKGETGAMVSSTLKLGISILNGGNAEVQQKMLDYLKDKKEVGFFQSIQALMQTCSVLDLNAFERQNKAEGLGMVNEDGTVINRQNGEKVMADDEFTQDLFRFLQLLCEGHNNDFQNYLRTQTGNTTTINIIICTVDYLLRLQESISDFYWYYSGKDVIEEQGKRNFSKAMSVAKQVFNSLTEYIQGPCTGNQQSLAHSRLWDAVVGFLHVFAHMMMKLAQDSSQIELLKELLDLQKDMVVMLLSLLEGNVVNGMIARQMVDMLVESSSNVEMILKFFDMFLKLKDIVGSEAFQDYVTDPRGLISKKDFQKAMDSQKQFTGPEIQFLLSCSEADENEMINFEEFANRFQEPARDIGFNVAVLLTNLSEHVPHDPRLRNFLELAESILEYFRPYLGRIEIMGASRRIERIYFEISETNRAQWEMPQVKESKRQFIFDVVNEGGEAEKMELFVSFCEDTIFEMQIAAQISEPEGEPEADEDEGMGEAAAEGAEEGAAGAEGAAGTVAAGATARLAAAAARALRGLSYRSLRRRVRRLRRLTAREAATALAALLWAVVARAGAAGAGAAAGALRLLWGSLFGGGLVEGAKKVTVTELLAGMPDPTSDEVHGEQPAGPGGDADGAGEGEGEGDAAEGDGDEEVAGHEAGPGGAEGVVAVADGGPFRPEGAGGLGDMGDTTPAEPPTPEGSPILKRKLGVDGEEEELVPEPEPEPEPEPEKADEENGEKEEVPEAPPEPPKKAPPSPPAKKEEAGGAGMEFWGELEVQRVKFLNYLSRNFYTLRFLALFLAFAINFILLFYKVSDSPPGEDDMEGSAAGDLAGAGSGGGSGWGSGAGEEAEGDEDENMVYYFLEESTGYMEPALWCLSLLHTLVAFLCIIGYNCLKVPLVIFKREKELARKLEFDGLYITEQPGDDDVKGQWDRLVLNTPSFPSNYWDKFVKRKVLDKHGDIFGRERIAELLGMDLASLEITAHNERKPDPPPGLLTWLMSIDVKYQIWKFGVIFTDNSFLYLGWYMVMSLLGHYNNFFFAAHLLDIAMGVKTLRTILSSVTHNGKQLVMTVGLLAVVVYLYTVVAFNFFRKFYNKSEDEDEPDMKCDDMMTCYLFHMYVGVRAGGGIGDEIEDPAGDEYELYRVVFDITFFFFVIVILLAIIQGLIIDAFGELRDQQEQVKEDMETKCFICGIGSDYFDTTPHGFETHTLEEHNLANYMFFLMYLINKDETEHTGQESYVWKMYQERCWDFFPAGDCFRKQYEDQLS

Row | Structure (SMILES) | Bound [3H]ryanodine % of control [1] | Bound [3H]ryanodine pmol/mg protein | Bound [3H]ryanodine, % of control, +1 mmol/l AMPPCP (control (-xanthine) = 100) | Bound [3H]ryanodine, % of control, +3 mmol/l AMP (control (-xanthine) = 100) | Bound [3H]ryanodine % of control (control (-xanthine) = 100) | effect on the [3H] ryanodine binding compared to the control xanthine | Bound [3H]ryanodine % of control [2]
1 | Cn1c(=O)c2[nH]c(-c3ccccc3)nc2n(C)c1=O [8-Phenyl-1,3-dimethylxanthine] | 58 ± 9 % of control | 1.67 ± 0.31 pmol/mg protein | 99 ± 18 % of control | 103 ± 14 % of control | – | – | –
2 | Cn1c(=O)c2c(ncn2CCO)n(C)c1=O [7β-Hydroxyethyl-1,3-dimethylxanthine] | 73 ± 4 % of control | 2.10 ± 0.26 pmol/mg protein | 124 ± 15 % of control | 134 ± 15 % of control | – | – | –
3 | CCCn1cnc2c(=O)[nH]c(=O)[nH]c21 [9-Propylxanthine] | – | 1.62 ± 0.20 pmol/mg protein | 96 ± 12 % of control | 97 ± 23 % of control | 96 ± 12 % of control | – | –
4 | Cn1c(=O)c2[nH]c(Cl)nc2n(C)c1=O [8-Chloro-1,3-dimethylxanthine] | 68 ± 4 % of control | 1.96 ± 0.13 pmol/mg protein | 116 ± 17 % of control | 108 ± 14 % of control | – | – | –
5 | CCCn1c(=O)[nH]c(=O)c2[nH]cnc21 [3-Propylxanthine] | – | 3.82 ± 0.23 pmol/mg protein | 226 ± 14 % of control | 203 ± 14 % of control | 226 ± 14 % of control | – | –
6 | Cn1c(=O)c2ncn(C)c2n(C)c1=O [1,3,9-Trimethylxanthine] | – | 1.77 ± 0.12 pmol/mg protein | 105 ± 7 % of control | 103 ± 15 % of control | – | – | –
7 | CC(C)Cn1c(=O)n(C)c(=O)c2[nH]cnc21 [3-Isobutyl-1-methylxanthine] | – | 2.96 ± 0.33 pmol/mg protein | 175 ± 20 % of control | 139 ± 11 % of control | 175 ± 20 % of control | – | –
8 | CCCn1cnc2[nH]c(=O)[nH]c(=O)c21 [7-Propylxanthine] | – | 4.57 ± 0.20 pmol/mg protein | 270 ± 12 % of control | 234 ± 14 % of control | 270 ± 12 % of control | – | –
9 | Cn1cnc2c(=O)[nH]c(=O)n(C)c21 [3,9-Dimethylxanthine] | – | 2.42 ± 0.34 pmol/mg protein | 143 ± 20 % of control | 141 ± 11 % of control | 143 ± 20 % of control | – | –
10 | Cn1c(=O)c2c(ncn2CC(O)CO)n(C)c1=O (stereo not drawn) [7-(2,3-Dihydroxypropyl)-1,3-dimethylxanthine] | 69 ± 6 % of control | 1.97 ± 0.16 pmol/mg protein | 117 ± 9 % of control | 123 ± 16 % of control | – | – | –
11 | Cn1c(=O)[nH]c2nc[nH]c2c1=O [1-Methylxanthine] | – | 3.02 ± 0.38 pmol/mg protein | 179 ± 22 % of control | 167 ± 16 % of control | 179 ± 22 % of control | – | –
12 | Cn1c(=O)c2[nH]c(C3CCCC3)nc2n(C)c1=O [8-Cyclopentyl-1,3-dimethylxanthine] | 78 ± 8 % of control | 2.25 ± 0.28 pmol/mg protein | 133 ± 6 % of control | 142 ± 14 % of control | – | – | –
13 | CCCCCCn1c(=O)c2c(ncn2C)n(C)c1=O [1-Hexyl-3,7-dimethylxanthine] | – | 6.99 ± 0.80 pmol/mg protein | 414 ± 47 % of control | 449 ± 28 % of control | – | more than 200% | 259 ± 24 % of control
14 | Cn1c(=O)c2[nH]c(CCC(=O)O)nc2n(C)c1=O [8-Propionic acid 1,3-dimethylxanthine] | 60 ± 3 % of control | 1.73 ± 0.09 pmol/mg protein | 102 ± 5 % of control | 100 ± 11 % of control | – | – | –
15 | CCCn1c(=O)c2c(ncn2C)n(CCC)c1=O [1,3-Dipropyl-7-methylxanthine] | – | 4.96 ± 0.39 pmol/mg protein | 295 ± 23 % of control | 326 ± 30 % of control | – | – | –
16 | C#CCn1c(=O)c2c(ncn2C)n(C)c1=O [3,7-Dimethyl-1-propargylxanthine] | – | 3.88 ± 0.10 pmol/mg protein | 230 ± 6 % of control | 201 ± 33 % of control | – | – | 144 ± 3 % of control
17 | CN1CN(C)c2c1[nH]c(=O)[nH]c2=O [7,9-Dimethylxanthine] | – | 1.73 ± 0.22 pmol/mg protein | 102 ± 13 % of control | 100 ± 15 % of control | 102 ± 13 % of control | – | –
18 | Cc1nc2[nH]c(=O)[nH]c(=O)c2[nH]1 [8-Methylxanthine] | – | 1.61 ± 0.33 pmol/mg protein | 95 ± 20 % of control | 90 ± 11 % of control | 95 ± 20 % of control | – | –
19 | CC(=O)CCCCn1c(=O)c2c(ncn2C)n(C)c1=O [1-(5-Oxohexyl)-3,7-dimethylxanthine] | – | 3.18 ± 0.08 pmol/mg protein | 188 ± 5 % of control | 185 ± 25 % of control | – | – | 118 ± 3 % of control
20 | Cn1c(=O)[nH]c2c(ncn2C)c1=O [1,9-Dimethylxanthine] | – | 1.42 ± 0.23 pmol/mg protein | 84 ± 14 % of control | 86 ± 18 % of control | 84 ± 14 % of control | less than 110% | –
21 | Cn1c(=O)[nH]c(=O)c2[nH]cnc21 [3-Methylxanthine] | – | 2.26 ± 0.15 pmol/mg protein | 134 ± 9 % of control | 137 ± 10 % of control | 134 ± 9 % of control | – | –
22 | Cn1c(=O)c2[nH]c(-c3ccc(S(=O)(=O)O)cc3)nc2n(C)c1=O [8-(p-Sulfophenyl)-1,3-dimethylxanthine] | 54 ± 6 % of control | 1.55 ± 0.28 pmol/mg protein | 92 ± 17 % of control | 91 ± 16 % of control | – | – | –
23 | Cn1c(=O)[nH]c2ncn(C)c2c1=O [1,7-Dimethylxanthine] | – | 6.08 ± 0.47 pmol/mg protein | 360 ± 28 % of control | 378 ± 34 % of control | 360 ± 28 % of control | – | –
24 | Cn1c(=O)c2c(ncn2CCCl)n(C)c1=O [7β-Chloroethyl-1,3-dimethylxanthine] | 135 ± 6 % of control | 3.88 ± 0.16 pmol/mg protein | 230 ± 9 % of control | 256 ± 34 % of control | – | – | –
